One may read the LD50 as the dose expected to kill half of the subjects tested. Read a low LD50 as a more toxic substance. A word on the NOAEL: it is the highest tested level that showed no adverse finding.

One data set has as its system Rattus norvegicus. The note with it: for LD50: acute, mortality.
For another data set, the system named is Anas platyrhynchos. To be noted: oral, mortality.

For `O=C(O)c1ccccc1C(F)(F)F` [2-(Trifluoromethyl)benzoic acid], the median lethal dose (LD50) in the data set with Rattus norvegicus (oral) is above 2000 mg/kg.

As to `COCCOC(=O)C(C#N)(C(=O)c1ccccc1C(F)(F)F)c1ccc(C(C)(C)C)cc1` (stereo not given) [Cyflumetofen], the LD50 with Anas platyrhynchos (acute, unspecified) is above 2250 mg/kg; in the data set with Colinus virginianus (acute, oral, mortality), above 2000 mg/kg; with Rattus norvegicus (oral), above 2000 mg/kg. Also, the LC50 with Anas platyrhynchos (short-term, feed) is above 2380 mg/kg-day; with Colinus virginianus (acute, oral, diet, mortality), above 1410 mg/kg-day. This molecule displayed an NOEC in the data set on Colinus virginianus (reproduction developmental, M) of at least 84.4 mg/kg-day. Besides, the NOAEL in the data set with Rattus norvegicus (chronic, duration: 2 years, organ weight) was 16.5 mg/kg-day; in the data set with Rattus norvegicus (chronic, no effects), 34.6 mg/kg-day; with Rattus norvegicus (subchronic, duration: 90 days, oral, histopathology: nonneoplastic) it was 16.5 mg/kg-day.

The record behind these values is EPA's ToxValDB 9.5 (doi:10.2903/j.efsa.2012.2504).
